Source: patent US7081468B2, “Ortho-substituted anthranilic acid amides and their use as medicaments” (Schering AG, priority 2000, dated 2006)

Tests used:
KDR kinase = KDR kinase (Homo sapiens, UniProt P35968); test: Inhibition of the KDR kinase activity (33P-ATP, poly-(Glu4Tyr) filter assay); format: biochemical; settings: 10 minutes at room temperature
Procedure: Solutions Required for the Tests
• Stock solution A: 3 mmol of ATP in water, pH 7.0 (−70° C.) • Stock solution B: g-33P-ATP 1 mCi/100 μl • Stock solution C: poly-(Glu4Tyr) 10 mg/ml in water Solution for Dilutions • Substrate solvent: 10 mmol of DTT, 10 mmol of manganese chloride, 100 mmol of magnesium chloride • Enzyme solution: 120 mmol of tris/HCl, pH 7.5, 10 μM of sodium vanadium oxide Sample Application 1 Inhibition of the KDR Kinase Activity in the Presence of the Compounds According to the Invention
In a microtiter plate (without protein binding) that tapers to a point, 10 μl of substrate mix (10 μl of volume of ATP stock solution A+25 μCi of g-33P-ATP (about 2.5 μl of stock solution B)+30 μl of poly-(Glu4Tyr) stock solution C+1.21 ml of substrate solvent), 10 μl of inhibitor solution (substances corresponding to the dilutions, 3% DMSO in substrate solvent as a control) and 10 μl of enzyme solution (11.25 μg of enzyme stock solution (KDR or FLT-1 kinase) are added at 4° C. in 1.25 ml of enzyme solution (dilute). It is thoroughly mixed and incubated for 10 minutes at room temperature. Then, 10 μl of stop solution (250 mmol of EDTA, pH 7.0) is added, mixed, and 10 μl of the solution is transferred to a P 81 phosphocellulose filter. Then, it is washed several times in 0.1 M phosphoric acid. The filter paper is dried, coated with Meltilex and measured in a microbeta counter.
The IC50 values are determined from the inhibitor concentration that is necessary to inhibit the phosphate incorporation to 50% of the uninhibited incorporation after removal of the blank reading (EDTA-stopped reaction).

C-Kit = C-Kit (Homo sapiens, UniProt P10721); test: C-Kit-isolated kinase-inhibition test; format: biochemical; settings: 10 minutes incubation
Procedure: C-Kit-Isolated Kinase-Inhibition Test
Assay Solutions Substrate Solutions for 125 Assays:
10 μl of ATP (37.5 μM), 25 μCi of γ33P-ATP (˜+2.5 μl of Amersham redivue solution) and 10 μl of poly-(glu,tyr) are mixed with 1.23 ml of solvent (1×).
The compounds are brought to the desired concentration in the solvent (1×).
The corresponding enzymatic preparation is brought to the necessary concentration with the solvent (1×) to obtain 1.24 ml. Then, 12.5 μl of sodium vanadate solution is added.
The components are added in the following sequence to a microtiter plate with round or stippled floors:
10 μl of the inhibitor in 3× final concentration,
10 μl of substrate mixture,
said components are mixed, and the reaction is started by adding:
10 μl of enzyme preparation.
The batch is incubated for 10 minutes and then brought to a halt by adding 10 μl of stop solution. 10 μl of the thus treated batch is added to the phosphocellulose filter, rewashed in phosphoric acid, then dried and then melted in a meltilex scintillator and measured.

KDR kinase, sequence (P35968 20-1356): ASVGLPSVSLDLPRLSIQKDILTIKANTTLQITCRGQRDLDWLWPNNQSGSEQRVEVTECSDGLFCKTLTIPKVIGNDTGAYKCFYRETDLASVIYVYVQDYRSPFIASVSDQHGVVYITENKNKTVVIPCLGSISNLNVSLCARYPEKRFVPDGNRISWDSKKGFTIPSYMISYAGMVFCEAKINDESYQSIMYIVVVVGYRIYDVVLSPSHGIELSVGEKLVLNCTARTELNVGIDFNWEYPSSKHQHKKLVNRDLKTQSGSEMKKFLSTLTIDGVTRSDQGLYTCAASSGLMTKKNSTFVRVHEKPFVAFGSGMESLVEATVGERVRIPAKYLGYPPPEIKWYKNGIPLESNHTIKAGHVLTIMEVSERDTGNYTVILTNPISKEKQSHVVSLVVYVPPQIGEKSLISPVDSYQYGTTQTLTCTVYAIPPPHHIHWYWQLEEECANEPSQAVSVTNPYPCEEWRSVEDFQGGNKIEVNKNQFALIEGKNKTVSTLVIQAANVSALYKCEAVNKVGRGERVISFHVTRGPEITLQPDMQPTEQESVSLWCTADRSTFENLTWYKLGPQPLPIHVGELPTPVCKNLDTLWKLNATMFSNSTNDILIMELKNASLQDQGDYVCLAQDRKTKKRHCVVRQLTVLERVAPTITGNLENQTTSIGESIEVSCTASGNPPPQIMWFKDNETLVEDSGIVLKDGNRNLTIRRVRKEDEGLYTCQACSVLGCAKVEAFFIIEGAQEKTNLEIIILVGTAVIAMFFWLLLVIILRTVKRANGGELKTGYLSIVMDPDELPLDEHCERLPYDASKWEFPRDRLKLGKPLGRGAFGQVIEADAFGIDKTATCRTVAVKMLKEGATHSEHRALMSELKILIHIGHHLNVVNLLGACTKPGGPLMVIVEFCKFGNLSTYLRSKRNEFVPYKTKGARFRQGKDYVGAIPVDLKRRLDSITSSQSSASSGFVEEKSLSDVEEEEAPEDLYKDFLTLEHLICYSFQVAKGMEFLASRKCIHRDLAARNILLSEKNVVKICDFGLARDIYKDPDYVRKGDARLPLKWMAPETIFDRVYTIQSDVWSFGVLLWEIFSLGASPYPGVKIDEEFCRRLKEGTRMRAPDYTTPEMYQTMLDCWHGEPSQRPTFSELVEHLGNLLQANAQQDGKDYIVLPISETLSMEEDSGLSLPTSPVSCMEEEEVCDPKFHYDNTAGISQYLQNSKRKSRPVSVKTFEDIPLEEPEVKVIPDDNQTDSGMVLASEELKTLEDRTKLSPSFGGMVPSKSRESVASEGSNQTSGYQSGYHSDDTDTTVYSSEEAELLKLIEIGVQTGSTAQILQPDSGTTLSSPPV
C-Kit, sequence (P10721 26-976): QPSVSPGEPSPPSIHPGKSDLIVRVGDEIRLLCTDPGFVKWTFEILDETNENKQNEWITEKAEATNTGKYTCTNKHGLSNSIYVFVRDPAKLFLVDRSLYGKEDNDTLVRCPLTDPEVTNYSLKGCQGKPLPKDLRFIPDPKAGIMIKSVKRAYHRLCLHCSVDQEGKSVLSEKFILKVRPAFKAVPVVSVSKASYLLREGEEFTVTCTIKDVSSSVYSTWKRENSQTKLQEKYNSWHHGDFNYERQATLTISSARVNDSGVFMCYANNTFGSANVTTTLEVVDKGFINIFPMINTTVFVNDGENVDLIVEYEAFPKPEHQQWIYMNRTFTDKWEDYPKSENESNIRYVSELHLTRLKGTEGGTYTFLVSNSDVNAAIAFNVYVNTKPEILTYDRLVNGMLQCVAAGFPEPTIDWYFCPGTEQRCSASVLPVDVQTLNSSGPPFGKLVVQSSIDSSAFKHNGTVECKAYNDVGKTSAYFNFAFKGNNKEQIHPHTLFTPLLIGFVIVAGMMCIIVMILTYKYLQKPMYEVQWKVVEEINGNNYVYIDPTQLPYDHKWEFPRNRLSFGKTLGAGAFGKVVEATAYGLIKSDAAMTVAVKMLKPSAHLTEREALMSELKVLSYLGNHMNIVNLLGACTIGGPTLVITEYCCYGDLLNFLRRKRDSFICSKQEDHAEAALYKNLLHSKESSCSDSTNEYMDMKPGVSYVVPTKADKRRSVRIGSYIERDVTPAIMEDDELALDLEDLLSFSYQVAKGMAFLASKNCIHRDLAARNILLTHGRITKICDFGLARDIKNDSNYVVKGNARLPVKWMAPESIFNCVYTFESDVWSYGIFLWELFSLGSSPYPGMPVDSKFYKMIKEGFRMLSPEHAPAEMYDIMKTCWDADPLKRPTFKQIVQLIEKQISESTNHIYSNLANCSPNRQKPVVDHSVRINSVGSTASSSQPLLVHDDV

SMILES | melting point | IC50 (KDR kinase) | IC50 (C-Kit)
O=C(Nc1cc2cc(Cl)ccc2oc1=O)c1ccccc1NCc1ccncc1 [Example 6] | 182 to 184 °C | 200 nM | –
O=C(Nc1cc(C(F)(F)F)ccc1F)c1ccccc1NCc1ccncc1 [Example 15] | – | 2 nM | 2000 nM
O=C(Nc1ncc2ccccc2c1Br)c1ccccc1NCc1ccncc1 [Example 26] | 135.8 °C | 1 nM | 2000 nM
Cc1cc2cc(Cl)ccc2nc1NC(=O)c1ccccc1NCc1ccc(O)nc1 [Example 28] | 172 °C | 50 nM | 500 nM
Cc1cc2cn[nH]c2cc1NC(=O)c1ccccc1NCc1ccncc1 [Example 9] | – | 40 nM | –
COc1ccc(C(F)(F)F)cc1NC(=O)c1ccccc1NCc1ccncc1 [Example 13] | 135 °C | 50 nM | 5000 nM
O=C(Nc1cc2[nH]ncc2cc1Cl)c1ccccc1NCc1ccncc1 [Example 10] | 236.7 °C | 10 nM | > 10000 nM
Cc1cc2oc(=O)ccc2cc1NC(=O)c1ccccc1NCc1ccncc1 [Example 3] | 191.2 °C | 30 nM | 8000 nM
O=C(Nc1cc(C(F)(F)F)ccc1Cl)c1ccccc1NCc1ccncc1 [Example 14] | 105 °C | 1 nM | 5000 nM
COc1ccc2cc(NC(=O)c3ccccc3NCc3ccncc3)c(=O)oc2c1 [Example 5] | 171 to 172 °C | 10 nM | > 10000 nM
Cc1cc2[nH]ncc2cc1NC(=O)c1ccccc1NCc1ccncc1 [Example 11] | 224.2 °C | 1000 nM | > 10000 nM
O=C(Nc1cc(C(F)(F)F)ccc1C(F)(F)F)c1ccccc1NCc1ccncc1 [Example 17] | 68 °C | – | > 10000 nM
O=C(Nc1cc2ccccc2oc1=O)c1ccccc1NCc1ccncc1 [Example 1, N-[2-Oxo-2H-1-benzopyran-3-yl-]-2-[(4-pyridyl)methyl]amino-benzoic acid amide] | – | 3 nM | 6000 nM
O=C(Nc1cc2cc(Br)ccc2oc1=O)c1ccccc1NCc1ccncc1 [Example 7] | 198 to 200 °C | 200 nM | > 10000 nM
O=C(Nc1cc2cn[nH]c2cc1Cl)c1ccccc1NCc1ccncc1 [Example 2, N-(6-Chloroindazol-5-yl)-2-[(4-pyridyl)methyl]amino-benzoic acid amide] | – | 200 nM | > 10000 nM
